Source: US20050085547A1, “Molecules for inducing differentiation of dendritic cells” (Council of Scientific & Industrial Research, priority 2003, published 2005)
Like-named read-outs stand apart in the source and are kept apart here.

What was measured:
[1] = system: mouse bone marrow leukocyte precursors; experiment: Viability of the stimulated BM precursor cultures; format: cell-based, BALB/c mice; parameters: Viability, % of Viable cells: reference not given here
Protocol: (§1) The fine suspension obtained above was transferred into a 50 ml sterile centrifuge tube and centrifuged for 10 minutes at 1200 rpm. […] The pellets were washed using HBSS wash buffer and then centrifuged again for 10 minutes at 1200 rpm. This process was repeated for one more time. […] This suspension was then finally passed through a MACS (Magnetic Activated Cell Sorting) column to get essentially and predominately leukocyte precursors.

[2] = system: mouse bone marrow leukocyte precursors; experiment: Differentiation of dendritic cells from bone marrow leukocyte precursors, flow cytometry of cell surface markers; format: cell-based, BALB/c mice
Protocol: as §1
In order to evaluate the upregulation of various cell surface markers associated with Dendritic cells, flow cytometry on the cells stimulated with GM-CSF or the compound was carried out using fluorescent labeled antibodies to various molecules (CD11c, I-A^d, CD80, CD86, H2-D^d, CD54, CD40).
The hind limbs of the mouse were removed carefully and placed in a Petri dish with HBSS (Hanks Balanced Saline Solution) wash buffer. The tibias and femurs were cleared of all surrounding and attached tissues. This was followed by chipping the ends of bones. The bone marrow was flushed out by injecting HBSS solution into the bone with the help of a hypodermal syringe (No. 26 gauge). The bone marrow was finally made into a fine suspension by syringing in and out of the fluid several times using an 18 gauge syringe needle.

osteoclast precursors = experiment: In vitro osteoclastogenesis assay (M-CSF + RANKL, TRAP staining); format: cell-based, Balb/c mice; conditions: for Effect on RANKL-induced osteoclast differentiation / formation (in words): M-CSF and RANKL, TRAP-positive osteoclasts; for % inhibition of osteoclast formation / Number of TRAP-positive multinuclear cells/well of 96 well plate (Mean ± SEM): 6 days
Text: For in vitro osteoclastogenesis bone marrow cells were isolated from 5- to 8-wk-old Balb/c mice. Mice were sacrificed by cervical dislocation and femora and tibiae were aseptically removed and dissected free of adherent soft tissues. The bone ends were cut, and the marrow cavity was flushed out with medium MEM from one end of the bone using a sterile 21-gauge needle. The bone marrow suspension was carefully agitated with a plastic Pasteur pipette to obtain a single-cell suspension. The cells were washed twice and resuspended (10^6 cells/ml) in αMEM containing 10% FBS. […] After 24 h, nonadherent cells were harvested and layered on a Ficoll-Hypaque gradient. Cells at the gradient interface were collected, washed and resuspended (5×10^5/ml) in αMEM containing 10% FBS. In this study, we called these stromal cell-free, M-CSF-dependent, nonadherent cells as osteoclast precursors. These osteoclast precursors were added to 96-well plates (100 μl/well) containing plastic coverslips. Each well received further 100 μl of medium containing M-CSF (30 ng/ml), RANKL (30 ng/ml) without or with various concentrations of purified compound. Cultures were fed every 2-3 days and after incubation for 6 days osteoclast formation was evaluated by tartrate-resistant acid phosphatase (TRAP) staining. The number of TRAP-positive multinucleated cells (MNCs) containing 3 or more nuclei was scored.
TRAP is preferentially expressed at high levels in osteoclast and is considered, especially in the mouse, to be an osteoclast marker. Cytochemical staining for TRAP is widely used for identifying the osteoclasts in vivo and in vitro. It is claimed to be specific for osteoclasts in bone. After incubation, cells on cover slips were washed in PBS, fixed in 10% formalin for 10 min and stained for acid phosphatase in the presence of 0.05 M sodium tartrate. The substrate used was napthol AS-BI phosphate. Only those cells that were strongly TRAP-positive (dark red) counted by light microscopy.

[3] = Table A, 15 ng/ml of GM-CSF or 50 micro gram per ml of the synthetic compound, 48 h
[4] = Table B (Examples 6-8), concentration not given
[5] = M-CSF + RANKL + compound 0.5 μg/ml
[6] = M-CSF + RANKL + compound 1.5 μg/ml
[7] = M-CSF + RANKL + compound 3.0 μg/ml
[8] = M-CSF + RANKL + compound 5.0 μg/ml

Question: Which “Viability, % of Viable cells” value [1, 3] does the source give for “GM-CSF: Granulocyte Macrophage-Colony Stimulating Factor, growth factor conventionally used to generate DCs in vitro; comparison” here?
Answer: Its value is 180%.

Question: And the “Viability, % of Viable cells” value [1, 4]?
Answer: The value was 180%.

Question: And the “Fold increase in Relative MFI over unstimulated control, surface marker CD11c” value [2, 3]?
Answer: Its value is 5.0 fold.

Question: And the “Fold increase in Relative MFI over unstimulated control, surface marker CD54” value [2, 3]?
Answer: Its value is 4.0 fold.

Question: What about the “Fold increase in Relative MFI over unstimulated control, surface marker CD80” value [2, 3] of the same compound?
Answer: The value was 3.3 fold.

Question: And the “Fold increase in Relative MFI over unstimulated control, surface marker H-2D^d” value [2, 3]?
Answer: Its value is 2.0 fold.

Question: What about the “Fold increase in Relative MFI over unstimulated control, surface marker CD11c” value [2, 4] of the same compound?
Answer: The value was 5.0 fold.

Question: What about the “Fold increase in Relative MFI over unstimulated control, surface marker CD54” value [2, 4] of the same compound?
Answer: The value was 4.0 fold.

Question: And the “Fold increase in Relative MFI over unstimulated control, surface marker CD80” value [2, 4]?
Answer: Its value is 3.3 fold.

Question: What about the “Fold increase in Relative MFI over unstimulated control, surface marker H-2D^d” value [2, 4] of the same compound?
Answer: The value was 2.0 fold.

Question: With `O=C([O-])CC[C@H](NS(=O)(=O)[O-])C(=O)[O-].O=C([O-])CC[C@H](NS(=O)(=O)[O-])C(=O)[O-].[Ca+2].[Ca+2].[Ca+2]` [compound 1, L-glutamyl-N-sulphonic acid, Ca salt] as the compound, how does the “Viability of the cultures at the end of the incubation period” value ([1]; 200 mM of the synthetic compound, 48 h (embodiment text)) read?
Answer: The value was “more than 99%”.

Question: What about the “Viability of the cultures at the end of the incubation period” value ([1]; 50 micro gram per ml of the synthetic compound, 48 h) of the same compound?
Answer: Its value is > 99%.

Question: And the “Viability, % of Viable cells” value [1, 3]?
Answer: The value was 150%.

Question: And the “Effect on RANKL-induced osteoclast differentiation / formation (in words)” value (osteoclast precursors)?
Answer: Its value is “dose dependent inhibition in the number of osteoclast cells generated”.

Question: What about the “Induction of differentiation of dendritic cells from BM precursors (in words)” value [2] of the same compound?
Answer: Its value is “Induces Differentiation of Dendritic Cells”.

Question: And the “Concentration of maximum up regulation of cell surface densities of CD11c, CD80, CD54” value ([2]; incubation of BM leukocyte precursors with different concentrations)?
Answer: The value was 200 mM.

Question: And the “Induction of differentiation of dendritic cells from BM precursors (in words)” value ([2]; listed as the compound)?
Answer: The value was “induces the differentiation of DCs from BM precursors”.

Question: For `O=C(O)C[C@H](NS(=O)(=O)O)C(=O)O` [example 3, L-aspartyl, N-sulfonic acid], which “Effect on RANKL-induced osteoclast differentiation / formation (in words)” value (osteoclast precursors) is on record?
Answer: Its value is “significantly inhibited osteoclast formation”.

Question: How did the “% inhibition of osteoclast formation” value (osteoclast precursors; [5]) turn out when `O=C([O-])CCC[C@H](NS(=O)(=O)[O-])C(=O)[O-].O=C([O-])CCC[C@H](NS(=O)(=O)[O-])C(=O)[O-].[Ca+2].[Ca+2].[Ca+2]` [L-homoglutamic acid, N-sulphonic acid, calcium salt] was run?
Answer: The value was 5.55%.

Question: What about the “Number of TRAP-positive multinuclear cells/well of 96 well plate (Mean ± SEM)” value (osteoclast precursors; [5]) of the same compound?
Answer: Its value is 138.57 ± 7.95 cells/well.

Question: And the “% inhibition of osteoclast formation” value (osteoclast precursors; [6])?
Answer: Its value is 27.60%.

Question: And the “Number of TRAP-positive multinuclear cells/well of 96 well plate (Mean ± SEM)” value (osteoclast precursors; [6])?
Answer: The value was 106.23 ± 10.47 cells/well.

Question: And the “% inhibition of osteoclast formation” value (osteoclast precursors; [7])?
Answer: Its value is 46.40%.

Question: What about the “Number of TRAP-positive multinuclear cells/well of 96 well plate (Mean ± SEM)” value (osteoclast precursors; [7]) of the same compound?
Answer: Its value is 78.57 ± 13.57 cells/well.

Question: And the “% inhibition of osteoclast formation” value (osteoclast precursors; [8])?
Answer: The value was 68.50%.

Question: What about the “Number of TRAP-positive multinuclear cells/well of 96 well plate (Mean ± SEM)” value (osteoclast precursors; [8]) of the same compound?
Answer: The value was 46.22 ± 10.00 cells/well.
